Measurements from US12617783B2, “Heterocyclic GLP-1R agonists” (BIOMEA FUSION, INC., priority 2024, dated 2026).

These compounds were tested against T1, human GLP-1R (Homo sapiens, UniProt P43220) (assay: GLP-1R cAMP assay (Example B1a, HTRF, 30 min at room temperature)). Settings: cAMP accumulation in HEK293 expressing human GLP-1R, no BETP, 30 min room temperature (Method B1a, compounds ID 1-609), Table 1; read-out: EC50.
T1 construct: host or cells: HEK293
Type: cell-based
How it was run: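 Competitive HTRF read-out of cAMP after 30 min room-temperature stimulation, BETP absent, of human GLP-1R-HEK293 cells (1,000/well) in HEPES buffer with 500 μM IBMX and 0.1% BSA. Activation normalised to GLP-1(7-37) positive control. EC50 from 4-parameter non-linear regression.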

T1 sequence (P43220 24-463): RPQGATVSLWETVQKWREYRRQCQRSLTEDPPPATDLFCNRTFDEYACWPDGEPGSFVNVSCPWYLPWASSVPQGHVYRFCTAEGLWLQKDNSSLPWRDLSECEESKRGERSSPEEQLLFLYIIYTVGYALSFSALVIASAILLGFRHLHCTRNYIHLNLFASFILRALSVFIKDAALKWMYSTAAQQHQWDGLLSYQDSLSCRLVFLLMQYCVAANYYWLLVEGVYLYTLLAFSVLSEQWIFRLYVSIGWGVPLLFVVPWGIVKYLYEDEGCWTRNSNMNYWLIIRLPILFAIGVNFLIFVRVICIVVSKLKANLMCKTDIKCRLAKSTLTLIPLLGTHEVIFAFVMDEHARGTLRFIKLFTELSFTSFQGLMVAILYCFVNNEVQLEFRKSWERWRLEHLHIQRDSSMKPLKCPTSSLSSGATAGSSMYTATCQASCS

| EC50 [nM] | SMILES |
| --- | --- |
| 34.1 | Cc1cc(-n2nc3c(c2-n2ccn(-c4ccc5c(cnn5C)c4F)c2=O)[C@@H]2COC[C@H](C3)N2C(=O)c2cc3cc([C@H]4CCOC(C)(C)C4)ncc3n2[C@@]2(c3noc(=O)[nH]3)C[C@@H]2C)cc(C)c1F [Compound 225, 3-((1S,2S)-1-(5-((S)-2,2-dimethyltetrahydro-2H-pyran-4-yl)-2-((4R,8S)-3-(3-(4-fluoro-1-methyl-1H-indazol-5-yl)-2-oxo-2,3-dihydro-1H-imidazol-1-yl)-2-(4-fluoro-3,5-dimethylphenyl)-2,4,5,7,8,9-hexahydro-4,8-epiminooxocino [5,4-c]pyrazole-10-carbonyl)-1H-pyrrolo[2,3-c]pyridin-1-yl)-2-methylcyclopropyl)-1,2,4-oxadiazol-5 (4H)-one] |
| 167 | Cc1cc(-n2nc3c(c2-n2ccn(-c4ccc5c(cnn5C)c4F)c2=O)[C@@H]2CC[C@H](C3)N2C(=O)c2cc3cc(N4CCOC(C)(C)C4)ccc3n2[C@@]2(c3noc(=O)[nH]3)C[C@@H]2C)cc(C)c1F [Compound 229, 3-((1S,2S)-1-(5-(2,2-dimethylmorpholino)-2-((4S,7R)-3-(3-(4-fluoro-1-methyl-1H-indazol-5-yl)-2-oxo-2,3-dihydro-1H-imidazol-1-yl)-2-(4-fluoro-3,5-dimethylphenyl)-2,4,5,6,7,8-hexahydro-4,7-epiminocyclohepta [c]pyrazole-9-carbonyl)-1H-indol-1-yl)-2-methylcyclopropyl)-1,2,4-oxadiazol-5 (4H)-one] |
| > 10000 | Cc1cc(-n2nc3c(c2-n2ccn(-c4ccc5c(cnn5C)c4F)c2=O)[C@@H]2CC[C@H](C3)N2C(=O)c2cc3c(=O)n(C4CCOC(C)(C)C4)ccc3n2[C@@]2(c3noc(=O)[nH]3)C[C@@H]2C)cc(C)c1F (stereo partly drawn) [Compound 231, 3-[(1S,2S)-1-[5-(2,2-dimethyltetrahydropyran-4-yl)-2-[(1S,8R)-4-(4-fluoro-3,5-dimethyl-phenyl)-3-[3-(4-fluoro-1-methyl-indazol-5-yl)-2-oxo-imidazol-1-yl]-4,5,11-triazatricyclo[6.2.1.02,6]undeca-2,5-diene-11-carbonyl]-4-oxo-pyrrolo[3,2-c]pyridin-1-yl]-2-methyl-cyclopropyl]-4H-1,2,4-oxadiazol-5-one] |
| > 10000 | Cc1cc(-n2nc3c(c2-n2ccn(-c4ccc5c(cnn5C)c4F)c2=O)[C@@H]2CC[C@H](C3)N2C(=O)c2cc3c(OC4CCOC(C)(C)C4)nccc3n2[C@@]2(c3noc(=O)[nH]3)C[C@@H]2C)cc(C)c1F (stereo partly drawn) [Compound 232, 3-[(1S,2S)-1-[4-(2,2-dimethyltetrahydropyran-4-yl)oxy-2-[(1S,8R)-4-(4-fluoro-3,5-dimethyl-phenyl)-3-[3-(4-fluoro-1-methyl-indazol-5-yl)-2-oxo-imidazol-1-yl]-4,5,11-triazatricyclo[6.2.1.02,6]undeca-2,5-diene-11-carbonyl]pyrrolo[3,2-c]pyridin-1-yl]-2-methyl-cyclopropyl]-4H-1,2,4-oxadiazol-5-one] |
| > 10000 | Cc1cc(-n2nc3c(c2-n2ccn(-c4ccc5c(cnn5C)c4F)c2=O)[C@@H]2CC[C@H](C3)N2C(=O)c2cc3c(=O)n([C@H]4CCOC(C)(C)C4)ccc3n2[C@@]2(c3noc(=O)[nH]3)C[C@@H]2C)cc(C)c1F [Compound 238, 3-[(1S,2S)-1-[5-[(4S)-2,2-dimethyltetrahydropyran-4-yl]-2-[(1S,8R)-4-(4-fluoro-3,5-dimethyl-phenyl)-3-[3-(4-fluoro-1-methyl-indazol-5-yl)-2-oxo-imidazol-1-yl]-4,5,11-triazatricyclo[6.2.1.02,6]undeca-2,5-diene-11-carbonyl]-4-oxo-pyrrolo[3,2-c]pyridin-1-yl]-2-methyl-cyclopropyl]-4H-1,2,4-oxadiazol-5-one] |

Continued, compound first:

| SMILES | EC50 [nM] |
| --- | --- |
| COc1ccc(-n2ccn(-c3c4c(nn3-c3cc(C)c(F)c(C)c3)C[C@H]3CC[C@@H]4N3C(=O)c3cc4cc([C@H]5CCOC(C)(C)C5)ccc4n3[C@@]3(c4noc(=O)[nH]4)C[C@@H]3C)c2=O)cc1 [Compound 223, 3-[(1S,2S)-1-[5-[(4S)-2,2-dimethyltetrahydropyran-4-yl]-2-[(1S,8R)-4-(4-fluoro-3,5-dimethyl-phenyl)-3-[3-(4-methoxyphenyl)-2-oxo-imidazol-1-yl]-4,5,11-triazatricyclo[6.2.1.02,6]undeca-2,5-diene-11-carbonyl]indol-1-yl]-2-methyl-cyclopropyl]-4H-1,2,4-oxadiazol-5-one] | 259 |
| Cc1cc(-n2nc3c(c2-n2ccn(-c4cc(F)c5c(cnn5C)c4F)c2=O)[C@@H]2COC[C@H](C3)N2C(=O)c2cc3cc([C@H]4CCOC(C)(C)C4)ccc3n2[C@@]2(c3noc(=O)[nH]3)C[C@@H]2C)cc(C)c1F [Compound 224, 3-[(1S,2S)-1-[2-[(1R,8S)-3-[3-(4,7-difluoro-1-methyl-indazol-5-yl)-2-oxo-imidazol-1-yl]-4-(4-fluoro-3,5-dimethyl-phenyl)-10-oxa-4,5,12-triazatricyclo[6.3.1.02,6]dodeca-2,5-diene-12-carbonyl]-5-[(4S)-2,2-dimethyltetrahydropyran-4-yl]indol-1-yl]-2-methyl-cyclopropyl]-4H-1,2,4-oxadiazol-5-one] | 212 |
| Cc1cc(-n2nc3c(c2-n2ccn(-c4ccc5c(cnn5C)c4F)c2=O)[C@@H]2COC[C@H](C3)N2C(=O)c2cc3cc([C@H]4CCOC5(CC5)C4)ccc3n2[C@@]2(c3noc(=O)[nH]3)C[C@@H]2C)cc(C)c1F [Compound 226, 3-((1S,2S)-1-(2-((4R,8S)-3-(3-(4-fluoro-1-methyl-1H-indazol-5-yl)-2-oxo-2,3-dihydro-1H-imidazol-1-yl)-2-(4-fluoro-3,5-dimethylphenyl)-2,4,5,7,8,9-hexahydro-4,8-epiminooxocino [5,4-c]pyrazole-10-carbonyl)-5-((S)-4-oxaspiro[2.5]octan-7-yl)-1H-indol-1-yl)-2-methylcyclopropyl)-1,2,4-oxadiazol-5 (4H)-one] | 435 |
| Cc1cc(-n2nc3c(c2-n2ccn(-c4ccc5c(cnn5C)c4F)c2=O)[C@@H]2COC[C@H](C3)N2C(=O)c2cc3cc([C@@H]4CCOC5(CC5)C4)ccc3n2[C@@]2(c3noc(=O)[nH]3)C[C@@H]2C)cc(C)c1F [Compound 227, 3-((1S,2S)-1-(2-((4R,8S)-3-(3-(4-fluoro-1-methyl-1H-indazol-5-yl)-2-oxo-2,3-dihydro-1H-imidazol-1-yl)-2-(4-fluoro-3,5-dimethylphenyl)-2,4,5,7,8,9-hexahydro-4,8-epiminooxocino [5,4-c]pyrazole-10-carbonyl)-5-((R)-4-oxaspiro[2.5]octan-7-yl)-1H-indol-1-yl)-2-methylcyclopropyl)-1,2,4-oxadiazol-5 (4H)-one] | 585 |
| Cc1cc(-n2nc3c(c2-n2ccn(-c4ccc5c(cnn5C)c4C)c2=O)[C@@H]2COC[C@H](C3)N2C(=O)c2cc3cc([C@H]4CCOC(C)(C)C4)ccc3n2[C@@]2(c3noc(=O)[nH]3)C[C@@H]2C)cc(C)c1F [Compound 228, 3-[(1S,2S)-1-[2-[(1R,8S)-3-[3-(1,4-dimethylindazol-5-yl)-2-oxo-imidazol-1-yl]-4-(4-fluoro-3,5-dimethyl-phenyl)-10-oxa-4,5,12-triazatricyclo[6.3.1.02,6]dodeca-2,5-diene-12-carbonyl]-5-[(4S)-2,2-dimethyltetrahydropyran-4-yl]indol-1-yl]-2-methyl-cyclopropyl]-4H-1,2,4-oxadiazol-5-one] | 402 |
| Cc1cc(-n2nc3c(c2-n2ccn(-c4ccc5c(cnn5C)c4Cl)c2=O)[C@@H]2COC[C@H](C3)N2C(=O)c2cc3cc(C4CCOC5(CC5)C4)ccc3n2[C@@]2(c3noc(=O)[nH]3)C[C@@H]2C)cc(C)c1F (stereo partly drawn) [Compound 230, 3-[(1S,2S)-1-[2-[(1R,8S)-3-[3-(4-chloro-1-methyl-indazol-5-yl)-2-oxo-imidazol-1-yl]-4-(4-fluoro-3,5-dimethyl-phenyl)-10-oxa-4,5,12-triazatricyclo[6.3.1.02,6]dodeca-2,5-diene-12-carbonyl]-5-(4-oxaspiro[2.5]octan-7-yl)indol-1-yl]-2-methyl-cyclopropyl]-4H-1,2,4-oxadiazol-5-one] | 389 |
| Cc1cc(-n2nc3c(c2N2C(=O)CN(c4ccc5c(cnn5C)c4F)C2=O)[C@H]2CC[C@@H](C3)N2C(=O)c2cc3cc([C@H]4CCOC(C)(C)C4)ccc3n2[C@@]2(c3noc(=O)[nH]3)C[C@@H]2C)cc(C)c1F [Compound 234, 3-[(1R,8S)-11-[5-[(4S)-2,2-dimethyltetrahydropyran-4-yl]-1-[(1S,2S)-2-methyl-1-(5-oxo-4H-1,2,4-oxadiazol-3-yl)cyclopropyl]indole-2-carbonyl]-4-(4-fluoro-3,5-dimethyl-phenyl)-4,5,11-triazatricyclo[6.2.1.02,6]undeca-2,5-dien-3-yl]-1-(4-fluoro-1-methyl-indazol-5-yl)imidazolidine-2,4-dione] | > 10000 |
| Cc1cc(-n2nc3c(c2-n2ccn(-c4cc(F)c5c(cnn5C)c4F)c2=O)[C@@H]2CC[C@H](C3)N2C(=O)c2cc3cc([C@H]4CCOC(C)(C)C4)ccc3n2[C@@]2(c3noc(=O)[nH]3)C[C@@H]2C)cc(C)c1F [Compound 235, 3-[(1S,2S)-1-[2-[(1S,8R)-3-[3-(4,7-difluoro-1-methyl-indazol-5-yl)-2-oxo-imidazol-1-yl]-4-(4-fluoro-3,5-dimethyl-phenyl)-4,5,11-triazatricyclo[6.2.1.02,6]undeca-2,5-diene-11-carbonyl]-5-[(4S)-2,2-dimethyltetrahydropyran-4-yl]indol-1-yl]-2-methyl-cyclopropyl]-4H-1,2,4-oxadiazol-5-one] | 459 |
| Cc1cc(-n2nc3c(c2-n2ccn(-c4cc(F)c5c(cnn5C)c4F)c2=O)[C@@H]2CC[C@H](C3)N2C(=O)c2cc3cc([C@H]4CCOC(C)(C)C4)ncc3n2[C@@]2(c3noc(=O)[nH]3)C[C@@H]2C)cc(C)c1F [Compound 236, 3-[(1S,2S)-1-[2-[(1S,8R)-3-[3-(4,7-difluoro-1-methyl-indazol-5-yl)-2-oxo-imidazol-1-yl]-4-(4-fluoro-3,5-dimethyl-phenyl)-4,5,11-triazatricyclo[6.2.1.02,6]undeca-2,5-diene-11-carbonyl]-5-[(4S)-2,2-dimethyltetrahydropyran-4-yl]pyrrolo[2,3-c]pyridin-1-yl]-2-methyl-cyclopropyl]-4H-1,2,4-oxadiazol-5-one] | 785 |
